According to patent US4656142A, “Organometallic complexes of estrogens and their application to the determination of hormone receptors” (Centre National de la Recherche Scientifique, priority 1982, dated 1987):

Biological target: T1, estradiol receptor (Homo sapiens, UniProt P03372)
T1 construct: from tissue; host or cells: ewe uterine cytosol (inferred from the sister test)
Test: ability to compete with estradiol for the receptor (log/logit curves, Rao et al.); relative binding affinity
Settings: competition with estradiol, estradiol = 100
Excerpt: It must be point out that the further the RBA value (relative binding affinity) is from 100, the lower the competitiveness of the steroid tested.

T1 sequence (P03372 whole entry): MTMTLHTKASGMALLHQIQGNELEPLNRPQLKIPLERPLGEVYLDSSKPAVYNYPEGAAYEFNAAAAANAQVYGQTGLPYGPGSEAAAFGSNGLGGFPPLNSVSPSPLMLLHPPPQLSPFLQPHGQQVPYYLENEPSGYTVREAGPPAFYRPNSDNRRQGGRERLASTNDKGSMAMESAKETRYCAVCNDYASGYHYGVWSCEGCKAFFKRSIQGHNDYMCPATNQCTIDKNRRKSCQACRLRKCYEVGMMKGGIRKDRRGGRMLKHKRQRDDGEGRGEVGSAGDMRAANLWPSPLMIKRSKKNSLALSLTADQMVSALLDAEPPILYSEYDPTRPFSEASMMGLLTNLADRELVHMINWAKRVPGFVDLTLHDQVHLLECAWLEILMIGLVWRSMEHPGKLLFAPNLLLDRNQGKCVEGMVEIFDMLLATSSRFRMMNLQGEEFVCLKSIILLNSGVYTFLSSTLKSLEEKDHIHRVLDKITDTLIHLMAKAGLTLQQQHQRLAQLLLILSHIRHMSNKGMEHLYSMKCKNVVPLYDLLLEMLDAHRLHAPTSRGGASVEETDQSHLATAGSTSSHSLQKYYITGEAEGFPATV

Compound: CC(C)(C)[Si](C)(C)Oc1ccc2c(c1)CC[C@@H]1[C@@H]2CC[C@]2(C)[C@@H](O)CC[C@@H]12 [Compound 1, monosilylated β-estradiol]
- RBA (%) (relative binding affinity): 11%
